Assay results reported in patent US6489485B2, “Para-amine substituted phenylamide glucokinase activators” (Hoffmann-La Roche Inc., priority 2000, dated 2002).

melting point [°C] | SMILES
85 to 90 | CS(=O)(=O)Nc1ccc(C(CC2CCCC2)C(=O)Nc2nccs2)cc1 (stereo not drawn) [Example 12, 3-Cyclopentyl-2-(4-methanesulfonylamino-phenyl)-N-thiazol-2-yl-propionamide]
90 to 95 | CC(=O)OCC(=O)Nc1ccc(C(CC2CCCC2)C(=O)Nc2nccs2)cc1 (stereo not drawn) [Example 7, Acetic acid {4-[2-cyclopentyl-1-(thiazol-2-ylcarbamoyl)-ethyl]-phenylcarbamoyl}-methyl ester]
225 to 230 | O=C(Nc1ccc(C(CC2CCCC2)C(=O)Nc2nccs2)cc1)c1ccncc1 (stereo not drawn) [Example 4, N-{4-[2-Cyclopentyl-1-(thiazol-2-ylcarbamoyl)-ethyl]-phenyl}-isonicotinamide]
222 to 223 | CCOC(=O)c1csc(NC(=O)C(CC2CCCC2)c2ccc(NC(=O)c3cccnc3)cc2)n1 (stereo not drawn) [Example 10, 2-(3-Cyclopentyl-2-{4-[(pyridine-3-carbonyl)-amino]-phenyl}propionylamino)-thiazole-4-carboxylic acid ethyl ester]
110 to 112 | CN(C)S(=O)(=O)Nc1ccc(C(CC2CCCC2)C(=O)Nc2nccs2)cc1 (stereo not drawn) [Example 8, N-{4-[2-Cyclopentyl-1-(thiazol-2-ylcarbamoyl)-ethyl]-phenyl}-dimethylsulfamide]
285 to 290 | O=C(Nc1ccc(C(CC2CCCC2)C(=O)Nc2nccs2)cc1)c1ccccc1 (stereo not drawn) [Example 1]
120 to 125 | O=C(Nc1nccs1)C(CC1CCCC1)c1ccc(NS(=O)(=O)c2ccc([N+](=O)[O-])cc2)cc1 (stereo not drawn) [Example 3, 3-Cyclopentyl-2-[4-(4-nitro-benzenesulfonylamino)-phenyl]-N-thiazol-2-yl-propionamide]
195 to 200 | CCOC(=O)Cc1csc(NC(=O)C(CC2CCCC2)c2ccc(NC(=O)c3cccnc3)cc2)n1 (stereo not drawn) [Example 11, [2-(3-Cyclopentyl-2-{4-[(pyridine-3-carbonyl)-amino]-phenyl}-propionylamino)-thiazol-4-yl]-acetic acid ethyl ester]
220 to 221 | O=C(Cc1cccs1)Nc1ccc(C(CC2CCCC2)C(=O)Nc2nccs2)cc1 (stereo not drawn) [Example 2, 3-Cyclopentyl-N-thiazol-2-yl-2-[4-(2-thiophen-2-yl-acetylamino)-phenyl]-propionamide]
160 to 163 | O=C(Nc1ccc(C(CC2CCCC2)C(=O)Nc2ccccn2)cc1)c1cccnc1 (stereo not drawn) [Example 15, N-{4-[2-Cyclopentyl-1-(pyridin-2-ylcarbamoyl)-ethyl]-phenyl}-nicotinamide]
236 to 238 | O=C(Nc1ccc(C(CC2CCCC2)C(=O)Nc2nccs2)cc1)c1ccc([N+](=O)[O-])cc1 (stereo not drawn) [Example 5, N-{4-[2-Cyclopentyl-1-(thiazol-2-ylcarbamoyl)-ethyl]-phenyl}-4-nitro-benzamide]
110 to 111 | COC(=O)c1ccc(NC(=O)C(CC2CCCC2)c2ccc(NC(=O)c3cccnc3)cc2)nc1 (stereo not drawn) [Example 16, 6-(3-Cyclopentyl-2-{4-[(pyridine-3-carbonyl)-amino]-phenyl}-propionylamino)-nicotinic acid methyl ester]
240 to 242 | O=C(Nc1ccc(C(CC2CCCC2)C(=O)Nc2nccs2)cc1)c1cccnc1 (stereo not drawn) [Example 9, N-{4-[2-Cyclopentyl-1-(thiazol-2-ylcarbamoyl)-ethyl]-phenyl}-nicotinamide]
70 to 74 | O=C(Nc1nccs1)C(CC1CCCC1)c1ccc(NS(=O)(=O)C(F)(F)F)cc1 (stereo not drawn) [Example 13, 3-Cyclopentyl-N-thiazol-2-yl-2-(4-trifluoromethanesulfonylamino-phenyl)-propionamide]
95 to 98 | COC(=O)C(=O)Nc1ccc(C(CC2CCCC2)C(=O)Nc2nccs2)cc1 (stereo not drawn) [Example 6, N-{4-[2-Cyclopentyl-1-(thiazol-2-ylcarbamoyl)-ethyl]-phenyl}-oxalamic acid methyl ester]
